Our source for the Kd values is ChEMBL document CHEMBL3351755, “Elements and modulation of functional dynamics” (J Med Chem, 2014).

Test [1] is described as follows: Binding affinity to mouse major urinary protein by NMR analysis.
A short description of test [2]: Binding affinity to hen egg-white lysozyme by NMR analysis. Further details: species or system Gallus gallus.
The target in test [3] is T1, Thiopurine S-methyltransferase (Homo sapiens, UniProt P51580).
T1 sequence (P51580 whole entry): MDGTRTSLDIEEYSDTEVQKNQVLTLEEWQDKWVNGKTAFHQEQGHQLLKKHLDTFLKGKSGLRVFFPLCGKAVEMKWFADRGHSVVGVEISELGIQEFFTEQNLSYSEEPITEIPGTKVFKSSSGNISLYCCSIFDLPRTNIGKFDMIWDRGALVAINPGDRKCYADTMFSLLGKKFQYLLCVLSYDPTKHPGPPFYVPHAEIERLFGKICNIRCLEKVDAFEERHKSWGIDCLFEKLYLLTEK
The experiment in a line: Binding affinity to thiopurine methyltransferase (unknown origin) by NMR analysis.

In test [4] the target is T2, 6-phosphogluconolactonase (Trypanosoma brucei, UniProt Q9GRG6).
T2 sequence (Q9GRG6 whole entry): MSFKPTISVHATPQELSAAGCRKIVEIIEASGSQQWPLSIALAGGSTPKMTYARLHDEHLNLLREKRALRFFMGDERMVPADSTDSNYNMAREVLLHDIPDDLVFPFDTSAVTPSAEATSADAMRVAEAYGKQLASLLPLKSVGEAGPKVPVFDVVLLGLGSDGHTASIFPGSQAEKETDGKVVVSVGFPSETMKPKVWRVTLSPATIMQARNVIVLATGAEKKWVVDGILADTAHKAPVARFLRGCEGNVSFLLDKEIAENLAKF
The test is described as follows: Binding affinity to Trypanosoma brucei 6-phospho-gluconalactonase by NMR analysis.

The target of the next test is Galectin-3 (Homo sapiens, UniProt P17931). The experiment in a line: Binding affinity to galectin-3 (unknown origin).
Galectin-3, sequence (P17931 whole entry): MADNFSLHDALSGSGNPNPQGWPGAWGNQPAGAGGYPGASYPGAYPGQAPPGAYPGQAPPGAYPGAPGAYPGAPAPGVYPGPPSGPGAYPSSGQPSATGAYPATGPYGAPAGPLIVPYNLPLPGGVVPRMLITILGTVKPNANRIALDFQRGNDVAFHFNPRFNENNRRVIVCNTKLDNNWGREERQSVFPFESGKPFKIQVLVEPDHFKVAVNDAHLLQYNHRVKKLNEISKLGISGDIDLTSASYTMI
Test [5] in a line: Binding affinity to oxalocrotonate tautomerase (unknown origin) by NMR analysis.
Test [6] in a line: Binding affinity to Escherichia coli ribose binding protein by NMR analysis.
Test [7] can be described thus: Binding affinity to quail siderocalin Q83 by NMR analysis. Further details: species or system Galliformes.
The nature of test [8]: Binding affinity to ketosteroid isomerase (unknown origin) by NMR analysis.
Test [9] in a line: Binding affinity to Escherichia coli glucose/galactose binding protein by NMR analysis.

In test [1], `COc1nccnc1CC(C)C` gave a Kd of 0.3 µM.

`CCC(C)C1=NCCS1` (stereo not drawn) displayed a dissociation constant (Kd) in test [1] of 0.9 µM. In turn, `N[C@H]1[C@H](O[C@H]2[C@H](O)[C@@H](N)[C@H](O[C@H]3[C@H](O)[C@@H](N)C(O)O[C@@H]3CO)O[C@@H]2CO)O[C@H](CO)[C@@H](O)[C@@H]1O` (stereo partly drawn) returned a Kd in test [2] of 14 µM. As for `Nc1ncnc2c1ncn2[C@@H]1O[C@H](C[C@@H](N)CC[C@H](N)C(=O)O)[C@@H](O)[C@H]1O` [SINEFUNGIN], the Kd in [3] stood at 10 µM.

`c1ccc(Nc2cccc3ccccc23)cc1` showed a Kd in test [1] of 0.032 µM. As for `O=C(O)[C@H](O)[C@@H](O)[C@H](O)[C@H](O)COP(=O)(O)O`, the Kd in test [4] amounted to 10 µM. `COc1c(F)c(F)c(C(=O)N[C@H]2[C@@H](O)[C@@H](CO)O[C@@H](O[C@H]3[C@H](O)[C@@H](NC(C)=O)C(O)O[C@@H]3CO)[C@@H]2O)c(F)c1F` (stereo partly drawn) came in with a Kd at Galectin-3 of 3.3 µM. In [5], `CC1(C)SCN(C(=O)[C@@H](CS)Cc2ccccc2)[C@H]1C(=O)O` registered a Kd of 590 µM. Compound `O[C@@H]1[C@H](O)[C@H](O)CO[C@H]1O` [RIBOSE (PYRANOSE)] yielded a Kd in test [6] of 0.17 µM. In the case of `O=C(N[C@H]1COC(=O)[C@@H](NC(=O)c2cccc(O)c2O)COC(=O)[C@@H](NC(=O)c2cccc(O)c2O)COC1=O)c1cccc(O)c1O` [ENTEROBACTIN], the Kd in test [7] is 0.0005 µM.

`C[C@]12CC[C@H]3[C@@H](CCC4=CC(=O)CC[C@@H]43)[C@@H]1CC[C@@H]2O` gave a Kd in [8] of 5.5 µM. `OC[C@H]1OC(O)[C@H](O)[C@@H](O)[C@@H]1O` (stereo partly drawn) [DEXTROSE]: in test [9], the affinity, expressed as Kd, was 0.29 µM. Turning to `CC(=O)N[C@H]1C(O)O[C@H](CO)[C@@H](O[C@@H]2O[C@H](CO)[C@H](O)[C@H](NC(=O)c3ccccc3)[C@H]2O)[C@@H]1O` (stereo partly drawn), at Galectin-3, the equilibrium dissociation constant (Kd) worked out at 18.2 µM.

As usually defined, the Kd is the equilibrium constant for the complex coming apart.
